Experiments:
M. avium [1] = test: Growth of M. avium in vivo in C57B1/6 mice, CFU per organ; design: species or system Mycobacterium avium
M. avium [2] = test: Intracellular growth of M. avium in mouse bone marrow-derived macrophages (mBMDM) in vitro, CFU assay; format: cell-based, Mycobacterium avium; settings: for M. avium growth in mBMDM: L-try (final 66 μg/ml) or M-try (125 μM) alone; for reductions in the anti-mycobacterial ability of ISS treatment: M. avium-infected mBMDM cultured with L-try (66 μg/ml) or M-try (125 μM) supplemented media plus ISS; for % of CFU: 10 μg/ml 72 h prior to infection, day 7, medium alone = 100%
Protocol: A previously studied M. avium strain 13 (Hayashi, et al. (1999) Infect. Immun. 67:3558-3565; Meylan, et al. (1990) Infect. Immun. 58:2564-2568), isolated from an AIDS patient at UCSD, San Diego, Calif., was used in all experiments. The organism was cultured on Middlebrook 7H11 agar (Difco Laboratories, Detroit, Mich.) with OADC enrichment at 37° C. in the presence of 5% CO2 for two weeks. Transparent colonies were selectively picked and further cultured on Middlebrook 7H11 plates for two more weeks. The resulting colonies, which were predominantly transparent (>90%), were then collected and washed two times with phosphate-buffered saline (PBS). The bacteria were finally resuspended in Middlebrook 7H9 broth (Difco Laboratories) and the OD600 of the suspension was adjusted to 0.15-0.2. The suspension was aliquoted and stored at −70° C. until use. The number of organisms/ml of this suspension was determined by the colony forming unit (CFU) assay.
The number of CFU in a given sample was determined by colony counting as described previously (Ogata, et al. (1992) Infect. Immun. 60:4720-4725). Serial 10-fold dilutions of total cell lysates or tissue homogenates were performed in PBS. 10 μl of each dilution were plated on Middlebrook 7H11 plates supplemented with OADC enrichment. The plates were incubated up to 14 days at 37° C. The number of colonies was counted every alternate day from day 10 onwards until no new colonies appeared. This yielded the number of CFU/10 μl. The number of CFU in each well was then calculated.
Preparation of Murine Macrophages. Mouse bone marrow-derived macrophages (mBMDM) were prepared from mouse bone marrow using L-cell conditioned media, as described in Martin-Orozco, et al. (1999) […] 11:1111-1118.
Alternatively, 5×10^4 mBMDM or hMDM was treated with ISS for 3 days before infection. Macrophages treated with M-ODN or with media alone served as controls. After 3 days, the cells were infected for 2 hrs with M. avium at a macrophage:bacteria ratio of 2:1 for mBMDM or of 1:10 for hMDM, and subsequently cultured in fresh media without antibiotics. To examine attachment and/or invasion of M. avium, the macrophages were lysed immediately after washing, and the number of bacteria were enumerated by the CFU assay. Intracellular growth of M. avium was determined on days 1, 3, and 7 after infection. To account for all the mycobacteria in each group, corresponding lysates were combined and then the number of CFU was determined. To examine the efficacy of anti-mycobacterial treatments, CFU recovered from cells treated with medium alone were considered as 100% growth.
To determine whether treatment with ISS after infection alters M. avium growth, adherent cells were first infected with M. avium for 2 hrs and then these cells were cultured with fresh media containing ISS. Infected cells treated with M-ODN or medium alone served as controls. At day 7, intracellular growth of M. avium was assessed by CFU assay.

mBMDM = test: Viability of mBMDM (trypan-blue exclusion); format: cell-based, mouse
Protocol: To examine whether treatment with ISS can stimulate macrophages to inhibit the growth of M. avium, mBMDM (5×10^4 mBMDM/well) was first treated with ISS or M-ODN for 72 hrs and then infected with M. avium. Then, cellular CFU was counted on days 1, 3, and 7 post-infection (FIG. 9A). By day 7, treatment with ISS inhibited intracellular growth of M. avium in mBMDM by 80% (p<0.001). Since viability of macrophages can affect M. avium growth, the viability of macrophages was assessed by trypan-blue exclusion. […]

[3] = tested on: indoleamine 2,3-dioxygenase (IDO); test: IDO gene induction in vivo in mice, semi-quantitative RT-PCR; settings: injection of M-ODN in mice
L. major = settings: BALB/c mice; injection four hours after inoculation with live L. major promastigotes; cited from earlier work
[4] = C57B1/6 mice, 10^7 CFU i.v., treatment from one week after infection, CLA 200 mg/kg alone, 5 weeks after infection

Compound: CC[C@H]1OC(=O)[C@H](C)[C@@H](O[C@H]2C[C@@](C)(OC)[C@@H](O)[C@H](C)O2)[C@H](C)[C@@H](O[C@@H]2O[C@H](C)C[C@H](N(C)C)[C@H]2O)[C@](C)(OC)C[C@@H](C)C(=O)[C@H](C)[C@@H](O)[C@]1(C)O [CLA, Clarithromycin, reference compound]
- decrease of bacterial growth in the liver (M. avium [1]; [4]): 4 log
- decrease of bacterial growth in the lungs (M. avium [1]; [4]): 1.5 log
- decrease of bacterial growth in the spleen (M. avium [1]; [4]): 4 log
- reduction of bacterial growth in mBMDM (M. avium [2]; mBMDM infected first, then treated, ISS 10 μg/ml, CLA 0.1 μg/ml, 7 days after infection, compared to medium alone): 84%

Compound: N[C@@H](Cc1c[nH]c2ccccc12)C(=O)O [L-try, L-tryptophan]
- M. avium growth in mBMDM (M. avium [2]): did not alter
- reductions in the anti-mycobacterial ability of ISS treatment (M. avium [2]): 4 fold

Compound: Cn1cc(CC(N)C(=O)O)c2ccccc21 (racemic) [M-try, 1-methyl-DL-tryptophan]
- viability of mBMDM (mBMDM; L-try (final 66 μg/ml) or M-try (125 μM) alone): did not alter
- M. avium growth in mBMDM (M. avium [2]): did not alter
- reductions in the anti-mycobacterial ability of ISS treatment (M. avium [2]): 4 fold

Compound: 5′-TGACTGTGAAGGTTAGAGATGA-3′ (SEQ ID NO:3) (chemistry not given here) [M-ODN, mutated control oligodeoxynucleotide with 2 base alteration of the CpG motif]
- viable mBMDM (mBMDM): > 90%
- induction of IDO after injection [3]: did not result in any detectable induction of IDO
- CFU in the spleen and lungs compared with control (PBS) mice (M. avium [1]; 10^7 organisms/mouse, four weeks after infection): similar
- % of CFU (M. avium [2]; mBMDM from IFN-αR−/− 129S6/SvEv): 106.9 ± 11.9%
- % of CFU (M. avium [2]; mBMDM from IFN-γR−/− 129S6/SvEv): 108.1 ± 10.8%
- % of CFU (M. avium [2]; mBMDM from IL-12 p40−/− C57B1/6): 117.6 ± 9.2%
- % of CFU (M. avium [2]; mBMDM from INOS−/− C57B1/6): 105.0 ± 13.9%
- % of CFU (M. avium [2]; mBMDM from NADPH oxidase−/− (gp91 phox−/−) C57B1/6): 107.0 ± 15.5%
- % of CFU (M. avium [2]; mBMDM from TNF-α−/− C57B1/6): 120.0 ± 20.0%
- % of CFU (M. avium [2]; mBMDM from Wild type 129S6/SvEV): 110.0 ± 15.9%
- % of CFU (M. avium [2]; mBMDM from Wild type C57B1/6): 117.2 ± 18.5%

Compound: CpG-ODN 1826
- animals protected from progressive infection (L. major): 65%
